Experimental data as given in patent US20250368647A1, “NITROGEN CONTAINING CONDENSED 2,3-DIHYDROQUINAZOLINONE COMPOUNDS AS NAV1.8 INHIBITORS” (GLAXOSMITHKLINE INTELLECTUAL PROPERTY DEVELOPMENT LIMITED, priority 2022, published 2025).

Biological target: human Nav1.8 (Homo sapiens (Human), UniProt Q9Y5Y9)
Assay: QPatch 48 HTX voltage-clamp electrophysiology, half inactivation state (V1/2) protocol, HEK293-Nav1.8 cells
Format: cell-based
Settings: HEK293 cells expressing human Nav1.8, human Navβ1 and human TREK1, P2 current; for IC50: read-out: Nav1.8, pIC50 (converted)
Summary of the method: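 HEK293 cells co-expressing Navβ1 and TREK1 were voltage-clamped from −100 mV: a 20 ms step to 0 mV, 8 s inactivation at −46 mV, 20 ms at −100 mV, then a 20 ms P2 test step to 0 mV, repeated every 15 s. P2 current was normalized to vehicle and full block, corrected for run-down, and Hill-fitted (4–6 concentrations) for IC50.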

Chain of human Nav1.8 (Q9Y5Y9 whole entry): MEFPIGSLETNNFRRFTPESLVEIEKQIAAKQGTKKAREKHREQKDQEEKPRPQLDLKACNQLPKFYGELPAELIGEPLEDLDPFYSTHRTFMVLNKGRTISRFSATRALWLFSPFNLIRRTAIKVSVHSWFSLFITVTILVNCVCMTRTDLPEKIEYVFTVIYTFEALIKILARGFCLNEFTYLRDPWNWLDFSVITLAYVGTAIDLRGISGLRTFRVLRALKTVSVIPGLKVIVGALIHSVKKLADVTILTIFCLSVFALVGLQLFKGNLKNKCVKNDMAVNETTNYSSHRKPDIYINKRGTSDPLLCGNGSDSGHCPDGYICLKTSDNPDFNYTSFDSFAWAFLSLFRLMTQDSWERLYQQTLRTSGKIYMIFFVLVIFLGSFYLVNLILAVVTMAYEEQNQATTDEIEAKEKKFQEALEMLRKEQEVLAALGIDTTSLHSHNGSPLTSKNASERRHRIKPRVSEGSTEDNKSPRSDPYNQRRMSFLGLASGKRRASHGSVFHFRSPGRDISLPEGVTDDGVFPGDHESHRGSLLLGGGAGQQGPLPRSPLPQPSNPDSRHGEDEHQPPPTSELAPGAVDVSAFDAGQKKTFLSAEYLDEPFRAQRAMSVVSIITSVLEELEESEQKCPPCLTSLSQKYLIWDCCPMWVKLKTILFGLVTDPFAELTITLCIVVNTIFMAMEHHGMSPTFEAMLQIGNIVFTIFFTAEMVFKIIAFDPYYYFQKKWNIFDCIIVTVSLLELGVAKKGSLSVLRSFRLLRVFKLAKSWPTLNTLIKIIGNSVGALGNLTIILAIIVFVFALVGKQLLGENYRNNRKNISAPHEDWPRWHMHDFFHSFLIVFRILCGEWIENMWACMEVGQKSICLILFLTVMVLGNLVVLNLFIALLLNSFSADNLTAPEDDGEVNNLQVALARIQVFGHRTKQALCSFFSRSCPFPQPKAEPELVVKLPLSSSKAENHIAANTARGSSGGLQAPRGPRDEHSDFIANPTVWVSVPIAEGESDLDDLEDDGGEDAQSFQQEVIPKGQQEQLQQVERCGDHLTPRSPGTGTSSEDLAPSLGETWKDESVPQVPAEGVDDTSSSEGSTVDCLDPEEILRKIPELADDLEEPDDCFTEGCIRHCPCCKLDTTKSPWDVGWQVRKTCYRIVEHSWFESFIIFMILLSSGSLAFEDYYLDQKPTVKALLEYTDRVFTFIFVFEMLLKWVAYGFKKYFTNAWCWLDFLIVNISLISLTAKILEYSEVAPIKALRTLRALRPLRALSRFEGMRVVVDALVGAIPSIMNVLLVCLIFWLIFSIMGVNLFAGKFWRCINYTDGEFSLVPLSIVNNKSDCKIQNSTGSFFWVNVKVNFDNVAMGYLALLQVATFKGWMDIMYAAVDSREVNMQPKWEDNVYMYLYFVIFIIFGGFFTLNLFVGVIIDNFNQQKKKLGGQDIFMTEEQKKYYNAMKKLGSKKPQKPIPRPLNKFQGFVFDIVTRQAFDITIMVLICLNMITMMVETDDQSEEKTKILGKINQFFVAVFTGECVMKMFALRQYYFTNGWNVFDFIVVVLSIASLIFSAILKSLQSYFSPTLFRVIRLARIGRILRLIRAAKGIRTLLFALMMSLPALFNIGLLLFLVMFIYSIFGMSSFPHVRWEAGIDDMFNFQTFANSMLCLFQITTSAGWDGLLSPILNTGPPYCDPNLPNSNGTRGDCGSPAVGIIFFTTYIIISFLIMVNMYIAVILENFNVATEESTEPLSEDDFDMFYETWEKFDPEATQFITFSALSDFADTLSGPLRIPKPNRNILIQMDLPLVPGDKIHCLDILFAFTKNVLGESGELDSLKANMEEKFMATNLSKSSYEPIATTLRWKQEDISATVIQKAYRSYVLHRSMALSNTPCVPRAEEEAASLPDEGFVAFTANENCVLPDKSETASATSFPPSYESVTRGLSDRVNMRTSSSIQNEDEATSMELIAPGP
Chain of human Nav1.8 (Q07699 19-218 partner): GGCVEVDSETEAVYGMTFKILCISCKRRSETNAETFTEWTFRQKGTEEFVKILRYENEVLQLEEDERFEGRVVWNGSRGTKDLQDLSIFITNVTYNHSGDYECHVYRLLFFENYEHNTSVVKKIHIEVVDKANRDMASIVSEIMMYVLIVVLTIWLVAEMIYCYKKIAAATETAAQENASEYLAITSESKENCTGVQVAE

Nav1.8, pIC50	IC50	Compound
7.6	–	Cl.O=C1c2cc(F)c(C(F)(F)F)cc2N2CN1c1ccc(=O)[nH]c1CCCNCc1c2ccc(F)c1F [Example 108, 2^6,3^3,3^4-trifluoro-2^7-(trifluoromethyl)-1^1,1^2,2^1,2^2,2^3,2^4-hexahydro-5-aza-2(3,1)-quinazolina-1(5,6)-pyridina-3(1,2)-benzenacyclooctaphane-1^2,2^4-dione hydrochloride]
6.8	–	Cl.O=C1c2cc(F)c(F)cc2N2CN1c1ccc(=O)[nH]c1CCCNCc1c2ccc(F)c1Cl [Example 109, 3^3-Chloro-2^6,2^7,3^4-trifluoro-1^1,1^2,2^1,2^2,2^3,2^4-hexahydro-5-aza-2(3,1)-quinazolina-1(5,6)-pyridina-3(1,2)-benzenacyclooctaphane-1^2,2^4-dione hydrochloride]
6.8	–	Cl.N#Cc1cc2c(cc1F)C(=O)N1CN2c2ccc(F)c(Cl)c2CNCCCc2[nH]c(=O)ccc21 [Example 110, 3^3-Chloro-2^6,3^4-difluoro-1^2,2^4-dioxo-1^1,1^2,2^1,2^2,2^3 2^4-hexahydro-5-aza-2(3,1)-quinazolina-1(5,6)-pyridina-3(1,2)-benzenacyclooctaphane-2^7-carbonitrile hydrochloride]
7.1	–	Cl.O=C1c2cc(F)c(C(F)(F)F)cc2N2CN1c1ccc(=O)[nH]c1CCNCCc1cc(F)ccc12 [Example 111, 2^6,3^4-Difluoro-2^7-(trifluoromethyl)-1^1,1^2,2^1,2^2,2^3,2^4-hexahydro-6-aza-2(3,1)-quinazolina-1(5,6)-pyridina-3(1,2)-benzenacyclooctaphane-1^2,2^4-dione hydrochloride]
6.2	–	CN1CCc2cc(F)ccc2N2CN(C(=O)c3cc(F)c(C(F)(F)F)cc32)c2ccc(=O)[nH]c2CC1 [Example 112, 2^6,3^4-Difluoro-6-methyl-2^7-(trifluoromethyl)-1^1,1^2,2^1,2^2,2^3,2^4-hexahydro-6-aza-2(3,1)-quinazolina-1(5,6)-pyridina-3(1,2)-benzenacyclooctaphane-1^2,2^4-dione]
6.9	–	CN1CCCc2[nH]c(=O)ccc2N2CN(c3cc(F)c(F)cc3C2=O)c2ccc(F)c(Cl)c2C1.Cl [Example 113, 3^3-Chloro-2^6,2^7,3^4-trifluoro-5-methyl-1^1,1^2,2^1,2^2,2^3,2^4-hexahydro-5-aza-2(3,1)-quinazolina-1(5,6)-pyridina-3(1,2)-benzenacyclooctaphane-1^2,2^4-dione hydrochloride]
–	100 nM	C[C@H]1NCCc2[nH]c(=O)ccc2N2CN(c3ccc(C(F)(F)F)cc3C2=O)c2ccc(F)cc21 [Example 115, (10R)-8-fluoro-10-methyl-2-(trifluoromethyl)-10,11,12,13-tetrahydro-19H-5,18-methanodibenzo[c,f]pyrido[3,2-j][1,5,9]triazacyclotridecine-15,19(14H)-dione]
–	126 nM	C[C@@H]1NCCc2[nH]c(=O)ccc2N2CN(c3ccc(C(F)(F)F)cc3C2=O)c2ccc(F)cc21 [Example 116, (10S)-8-fluoro-10-methyl-2-(trifluoromethyl)-10,11,12,13-tetrahydro-19H-5,18-methanodibenzo[c,f]pyrido[3,2-j][1,5,9]triazacyclotridecine-15,19(14H)-dione]
–	31.6 nM	C[C@H]1NCCc2[nH]c(=O)ccc2N2CN(c3cc(C(F)(F)F)c(F)cc3C2=O)c2ccc(F)cc21 [Example 118, (10R)-2,8-difluoro-10-methyl-3-(trifluoromethyl)-10,11,12,13-tetrahydro-19H-5,18-methanodibenzo[c,f]pyrido[3,2-j][1,5,9]triazacyclotridecine-11(10H)-dione]
–	631 nM	C[C@@H]1NCCc2[nH]c(=O)ccc2N2CN(c3cc(C(F)(F)F)c(F)cc3C2=O)c2ccc(F)cc21 [Example 119, (10S)-2,8-Difluoro-10-methyl-3-(trifluoromethyl)-10,11,12,13-tetrahydro-19H-5,18-methanodibenzo[c,f]pyrido[3,2-j][1,5,9]triazacyclotridecine-11(10H)-dione]
